Measured values: US11571418B2, “Platinum compounds that inhibit constitutive STAT3 signaling and induce cell cycle arrest and apoptosis of malignant cells” (H. LEE MOFFITT CANCER CENTER AND RESEARCH INSTITUTE, INC., priority 2011, dated 2023)

Columns and labels:
[1] = target: T1, Stat3 (Mus musculus, UniProt P42227); experiment: In vitro Stat3 DNA-binding activity assay, EMSA with hSIE probe
T1 construct: Nuclear extract preparation from NIH3T3 stimulated by rhIL-6, NIH3T3/hEGFR stimulated by rhEGF; endogenous in cells; host or cells: NIH3T3/hEGFR fibroblasts stimulated with rhEGF (nuclear extract)
T1 sequence (P42227 2-770 limits assumed): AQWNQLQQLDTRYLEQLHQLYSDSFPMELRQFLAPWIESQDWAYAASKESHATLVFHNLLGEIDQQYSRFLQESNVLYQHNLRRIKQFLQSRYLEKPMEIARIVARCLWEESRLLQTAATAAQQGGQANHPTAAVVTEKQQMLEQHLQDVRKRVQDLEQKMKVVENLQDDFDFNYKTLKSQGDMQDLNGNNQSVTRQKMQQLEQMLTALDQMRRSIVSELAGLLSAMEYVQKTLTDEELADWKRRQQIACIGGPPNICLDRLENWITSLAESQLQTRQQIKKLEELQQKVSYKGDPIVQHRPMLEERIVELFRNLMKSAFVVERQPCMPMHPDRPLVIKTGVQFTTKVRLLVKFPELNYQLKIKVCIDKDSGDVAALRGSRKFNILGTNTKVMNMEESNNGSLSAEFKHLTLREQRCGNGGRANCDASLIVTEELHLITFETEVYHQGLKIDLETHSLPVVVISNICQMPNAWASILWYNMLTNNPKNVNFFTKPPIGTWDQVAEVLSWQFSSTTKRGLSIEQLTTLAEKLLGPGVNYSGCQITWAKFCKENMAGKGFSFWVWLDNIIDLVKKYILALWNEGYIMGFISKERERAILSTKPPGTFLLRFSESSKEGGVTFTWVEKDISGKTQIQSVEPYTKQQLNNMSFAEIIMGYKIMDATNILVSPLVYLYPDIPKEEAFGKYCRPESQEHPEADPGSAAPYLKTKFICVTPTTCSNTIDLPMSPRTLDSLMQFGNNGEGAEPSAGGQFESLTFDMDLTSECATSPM
Protocol: FIGS. 1A-1E. Inhibition of in vitro Stat3 DNA-binding activity by a platinum complex. Nuclear extracts or cell lysates containing activated Stat1, Stat3 and Stat5, or E2F1 prepared from NIH3T3/hEGFR that are stimulated with EGF or Sf-9 insect cells that are infected with baculovirus expressing Stat1, Stat3, Stat5, or E2F1, respectively, were treated with or without the indicated concentrations of platinum complex, PLATINUM-401 or Cisplatin, for 30 min at room temperature prior to incubation with radiolabeled oligonucleotide probes, and subjected to EMSA analysis. (FIG. 1A) (i) Stat1 and Stat3 binding activities to hSIE probe, (ii) Stat1 and Stat5 binding activities to MGFe probe, and (iii) plot of % oligonucleotide probe-STAT:STAT complexes versus concentration of PLATINUM-401. […] Positions of STAT: STAT-DNA complexes in gel are labeled. In (A) to (C), the control lanes represent DMSO (vehicle)-treatment.
Nuclear extract preparation and gel shift assays—Nuclear extract preparation from NIH3T3 stimulated by rhIL-6, NIH3T3/hEGFR stimulated by rhEGF, v-Src-transformed fibroblasts (NIH3T3/v-Src) or tumor cell lines and electrophoretic mobility shift assay were carried out as previously described (Turkson et al., 1998; Garcia et al., 1997; Yu et al., 1995). The ^32P-labeled oligonucleotide probes used are hSIE (high affinity sis-inducible element from the c-fos gene, m67 variant, 5′-[…]) (SEQ ID NO:1) that binds Stat1 and Stat3 (Garcia et al., 1997; Wagner et al., 1990) and MGFe (mammary gland factor element from the bovine β-casein gene promoter, 5′-AGATTTCTAGGAATTCAA) (SEQ ID NO:2) for Stat1 and Stat5 binding (49,50). Except where indicated, inhibitor compound was pre-incubated with the nuclear extract for 30 min at room temperature prior to incubation with radiolabeled probe.
Compounds from the NCI 2000 diversity set were screened for inhibition of Stat3 signaling in an in vitro DNA-binding activity assay based on analysis by electrophoretic mobility shift assay (EMSA). A platinum (IV) complex, PLATINUM-401 (NSC 295558) (FIG. 1E), was identified as a potent inhibitor of Stat3 and was further characterized for its anti-Stat3 properties. In the in vitro DNA-binding activity assay, nuclear extracts of equal total protein containing active Stat1, Stat3 and Stat5 were pre-incubated with different concentrations of PLATINUM-401 for 30 min prior to incubation with a [^32P]-labeled oligonucleotide, the m67 high affinity sis-inducible element (hSIE) probe that binds Stat1 and Stat3, or the mammary gland factor element (MGFe) that binds Stat1 and Stat5. Samples were then subjected to EMSA.

[2] = system: Stat3 tyrosine phosphorylation; experiment: Stat3 tyrosine phosphorylation, Western blot; assay type: cell-based; settings: mouse fibroblasts, time- and dose-dependent
Protocol: FIGS. 3A-3D. Inhibition of Stat3-mediated gene expression by PLATINUM-401. (FIG. 3A) and (FIG. 3B) v-Src-transformed mouse fibroblasts that stably express Stat3-dependent (NIH3T3/v-Src/pLucTKS3) and Stat3-independent (NIH3T3/v-Src/pRLSRE) luciferase reporters or β-galactosidase (β-gal), as well as normal mouse fibroblast (NIH3T3) transiently transfected with pLucTKS3, pGL2-VEGF-Luc, NFkB-Luc or pLucSRE together with or without v-Src were treated with or without PLATINUM-401 for 48 h. Cytosolic extracts were then prepared from cells for luciferase and […] activities measurements. Values are the means and S.D. of three to five independent assays; (FIG. 3C) and (FIG. 3D) Nuclear extracts or whole cell lysates were prepared from IL-6-stimulated normal mouse fibroblasts (NIH3T3) or their v-Src-transformed counterpart (NIH3T3/v-Src) that are treated with or without PLATINUM-401 for different times. Samples of equal total proteins were then subjected to in vitro DNA-binding activity and EMSA analysis or for SDS-PAGE and Western blot analysis for phosphorylated and total Stat3.
Western blot—Whole-cell lysates were prepared in boiling sodium dodecyl sulfate (SDS) sample-loading buffer to extract total proteins from the cytoplasm and nucleus. […]
To further investigate the activities of PLATINUM-401, the inventors treated malignant cells and measured effects on Stat3 signaling. […]

[3] = system: Cyclin D1; experiment: Cyclin D1 detection, in situ and Western blot; assay type: cell-based, mouse; settings: NIH3T3/v-Src, 48 h
Protocol: FIGS. 8A and 8B. Inhibition of Cyclin D1 and Bcl-xL induction by PLATINUM-401. Viral Src-transformed fibroblasts (NIH3T3/v-Src) and human breast cancer cell line MDA-MB-435 that contain constitutively-activated Stat3 were treated with or without platinum complex for 48 h. Cells were processed for immunohistochemistry, or cell lysates were prepared from cells and subjected to 5% PAGE and Western blot analysis, as indicated in “Materials and Methods.” (FIG. 8A) Detection of Cyclin D1; (FIG. 8B) Detection of Bcl-xL. Positions of Cyclin D1 and Bcl-xL proteins are shown. Beta-actin levels are shown for normalizing for equal total protein. Data are representative of 3 independent determinations.
Western blot—Whole-cell lysates were prepared in boiling sodium dodecyl sulfate (SDS) sample-loading buffer to extract total proteins from the cytoplasm and nucleus. Equivalent amounts of total cellular protein were electrophoresed on an SDS-10% polyacrylamide gel and transferred onto nitrocellulose membranes. Probing of nitrocellulose membranes with primary antibodies and detection of horseradish peroxidase-conjugated secondary antibodies by enhanced chemiluminescence (Amersham, Piscataway, N.J.) were performed as previously described (Garcia et al., 2001; Turkson et al., 2004b; Zhang et al., 2000). […]

Q: `CC(O)CN1CCN(CC(C)O)CC1` (stereo not drawn) [PLATINUM-401] was tested. Which IC50 [1] did it give?
A: Its IC50 is 1400 nM.

Q: What about the “effect on Stat3 DNA-binding activity at low protein amount” value ([1]; 1 μg protein) of the same compound?
A: Its value is “strong and a dose-dependent decrease”.

Q: And the “type of inhibition of Stat3 DNA-binding activity (Lineweaver-Burke plot)” value ([1]; 0.3-2 μM compound, varied hSIE probe)?
A: The value was “non-competitive”.

Q: And the “effect on Stat3 DNA-binding activity at higher protein levels” value ([1]; 2-3 μg protein)?
A: The value was “diminished effect”.

Q: What about the “effect on Stat3 DNA-binding activity when protein is first bound to DNA” value ([1]; Stat3 incubated with hSIE probe 30 min, then compound 3-30 min) of the same compound?
A: The value was “fails to disrupt”.

Q: What about the “effect on DNA-binding activity of Stat3:Stat3 homodimer” value ([1]; pre-incubated 30 min before hSIE probe) of the same compound?
A: The value was “dose-dependent reduction”.

Q: What about the “effect on Stat3 DNA-binding activity on simultaneous addition of compound and hSIE probe” value ([1]; simultaneous addition, data not shown) of the same compound?
A: The value was “inhibition”.

Q: And the Stat3 tyrosine phosphorylation [2]?
A: Its Stat3 tyrosine phosphorylation is “inhibits”.

Q: And the “Cyclin D1 level” value [3]?
A: The value was “significantly diminished”.
